{"source": "ChEMBL document CHEMBL3045567", "about": "“Heterocycles 23: Synthesis, characterization and anticancer activity of new hydrazinoselenazole derivatives” (Med Chem Res, 2013)", "data": [{"system": "HepG2", "assay": "Cytotoxicity against human HepG2 cells after 72 hrs by XTT assay", "assay_type": "functional, cell-based", "details": "HepG2, 72 h", "units": {"IC50": "µM"}, "values": [{"smiles": "COc1ccc(/C=N/Nc2nc(-c3ccccc3)c[se]2)cc1", "IC50": 50.5}, {"smiles": "Clc1ccc(/C=N/Nc2nc(-c3ccccc3)c[se]2)cc1", "IC50": 42.5}, {"smiles": "NC(=[Se])N/N=C/c1ccccc1", "note": "[BENZYLIDEN-SELENOSEMICARBAZIDE]", "IC50": 39.1}, {"smiles": "CCOC(=O)c1[se]c(N(/N=C/c2ccc(Cl)cc2)C(C)=O)nc1C", "IC50": 55.1}, {"smiles": "ClCc1c[se]c(N/N=C/c2ccc(Cl)cc2)n1", "IC50": "> 75.1"}, {"smiles": "O=C(NNc1nc(-c2ccccc2)c[se]1)c1ccccc1", "IC50": "> 73"}, {"smiles": "Cc1c[se]c(NNC(=O)c2ccccc2)n1", "IC50": "> 89.2"}, {"smiles": "COc1ccc(/C=N/NC(N)=[Se])cc1", "IC50": 11.3}, {"smiles": "O=C(NNc1nc(-c2ccccc2)c[se]1)c1ccc(Cl)cc1", "IC50": 62.9}, {"smiles": "CC(=O)N(/N=C/c1ccc(Cl)cc1)c1nc(CCl)c[se]1", "IC50": "> 66.7"}, {"smiles": "NC(=[Se])N/N=C/c1csc(-c2ccccc2)n1", "IC50": 9.18}, {"smiles": "CC(=O)N(C(=O)c1ccc(Cl)cc1)N(C(C)=O)c1nc(C)c[se]1", "IC50": "> 62.7"}, {"smiles": "Cc1c[se]c(N/N=C/c2ccc(Cl)cc2)n1", "IC50": 56.5}, {"smiles": "CC(=O)N(/N=C/c1ccc(Cl)cc1)c1nc(-c2ccccc2)c[se]1", "IC50": "> 62.1"}, {"smiles": "COc1ccc(/C=N/Nc2nc(C)c[se]2)cc1", "IC50": 83.2}, {"smiles": "COc1cccc2c1C(=O)c1c(O)c3c(c(O)c1C2=O)C[C@@](O)(C(=O)CO)C[C@@H]3O[C@H]1C[C@H](N)[C@H](O)[C@H](C)O1", "note": "[DOXORUBICIN]", "IC50": 4.89}, {"smiles": "NC(=[Se])NNC(=O)c1ccccc1", "note": "[BENZOYL-SELENOSEMICARBAZIDE]", "IC50": 34.8}, {"smiles": "COc1ccc(/C=N/N(C(C)=O)c2nc(C)c[se]2)cc1", "IC50": "> 74.4"}, {"smiles": "ClCc1c[se]c(N/N=C/c2csc(-c3ccccc3)n2)n1", "IC50": 18.8}, {"smiles": "CC(=O)c1[se]c(N/N=C/c2csc(-c3ccccc3)n2)nc1C", "IC50": 61.3}, {"smiles": "CC(=O)N(/N=C/c1ccc(Cl)cc1)c1nc(C)c[se]1", "IC50": 59.2}, {"smiles": "COc1ccc(/C=N/N(C(C)=O)c2nc(-c3ccccc3)c[se]2)cc1", "IC50": "> 62.8"}, {"smiles": "Cc1c[se]c(NNC(=O)c2ccc(Cl)cc2)n1", "IC50": "> 79.5"}, {"smiles": "NC(=[Se])N/N=C/c1ccc(Cl)cc1", "IC50": 13}, {"smiles": "CC(=O)N(/N=C/c1csc(-c2ccccc2)n1)c1nc(CCl)c[se]1", "IC50": 19.3}, {"smiles": "CC(=O)c1[se]c(N(/N=C/c2csc(-c3ccccc3)n2)C(C)=O)nc1C", "IC50": 29.4}, {"smiles": "CC(=O)N(C(=O)c1ccccc1)N(C(C)=O)c1nc(C)c[se]1", "IC50": "> 68.6"}, {"smiles": "CCOC(=O)c1[se]c(N/N=C/c2ccc(Cl)cc2)nc1C", "IC50": 52.8}, {"smiles": "CC(=O)N(C(=O)c1ccc(Cl)cc1)N(C(C)=O)c1nc(-c2ccccc2)c[se]1", "IC50": "> 54.3"}, {"smiles": "NC(=[Se])NNC(=O)c1ccc(Cl)cc1", "IC50": 10.7}, {"smiles": "CC(=O)N(C(=O)c1ccccc1)N(C(C)=O)c1nc(-c2ccccc2)c[se]1", "IC50": "> 58.6"}]}, {"system": "DU-145", "assay": "Cytotoxicity against human DU145 cells after 72 hrs by XTT assay", "assay_type": "functional, cell-based", "details": "DU-145, 72 h", "units": {"IC50": "µM"}, "values": [{"smiles": "COc1ccc(/C=N/Nc2nc(-c3ccccc3)c[se]2)cc1", "IC50": 50.9}, {"smiles": "Clc1ccc(/C=N/Nc2nc(-c3ccccc3)c[se]2)cc1", "IC50": 54.2}, {"smiles": "NC(=[Se])N/N=C/c1ccccc1", "note": "[BENZYLIDEN-SELENOSEMICARBAZIDE]", "IC50": 40.8}, {"smiles": "CCOC(=O)c1[se]c(N(/N=C/c2ccc(Cl)cc2)C(C)=O)nc1C", "IC50": "> 60.6"}, {"smiles": "ClCc1c[se]c(N/N=C/c2ccc(Cl)cc2)n1", "IC50": "> 75.1"}, {"smiles": "O=C(NNc1nc(-c2ccccc2)c[se]1)c1ccccc1", "IC50": "> 73"}, {"smiles": "Cc1c[se]c(NNC(=O)c2ccccc2)n1", "IC50": "> 89.2"}, {"smiles": "COc1ccc(/C=N/NC(N)=[Se])cc1", "IC50": 30.3}, {"smiles": "O=C(NNc1nc(-c2ccccc2)c[se]1)c1ccc(Cl)cc1", "IC50": 65.1}, {"smiles": "CC(=O)N(/N=C/c1ccc(Cl)cc1)c1nc(CCl)c[se]1", "IC50": 64.7}, {"smiles": "NC(=[Se])N/N=C/c1csc(-c2ccccc2)n1", "IC50": 6.14}, {"smiles": "CC(=O)N(C(=O)c1ccc(Cl)cc1)N(C(C)=O)c1nc(C)c[se]1", "IC50": "> 62.7"}, {"smiles": "Cc1c[se]c(N/N=C/c2ccc(Cl)cc2)n1", "IC50": 49.4}, {"smiles": "CC(=O)N(/N=C/c1ccc(Cl)cc1)c1nc(-c2ccccc2)c[se]1", "IC50": "> 62.1"}, {"smiles": "COc1ccc(/C=N/Nc2nc(C)c[se]2)cc1", "IC50": "> 85"}, {"smiles": "COc1cccc2c1C(=O)c1c(O)c3c(c(O)c1C2=O)C[C@@](O)(C(=O)CO)C[C@@H]3O[C@H]1C[C@H](N)[C@H](O)[C@H](C)O1", "note": "[DOXORUBICIN]", "IC50": 3.27}, {"smiles": "NC(=[Se])NNC(=O)c1ccccc1", "note": "[BENZOYL-SELENOSEMICARBAZIDE]", "IC50": 35.1}, {"smiles": "COc1ccc(/C=N/N(C(C)=O)c2nc(C)c[se]2)cc1", "IC50": "> 74.4"}, {"smiles": "ClCc1c[se]c(N/N=C/c2csc(-c3ccccc3)n2)n1", "IC50": 16.4}, {"smiles": "CC(=O)c1[se]c(N/N=C/c2csc(-c3ccccc3)n2)nc1C", "IC50": 49.9}, {"smiles": "CC(=O)N(/N=C/c1ccc(Cl)cc1)c1nc(C)c[se]1", "IC50": 60.6}, {"smiles": "COc1ccc(/C=N/N(C(C)=O)c2nc(-c3ccccc3)c[se]2)cc1", "IC50": "> 62.8"}, {"smiles": "Cc1c[se]c(NNC(=O)c2ccc(Cl)cc2)n1", "IC50": "> 79.5"}, {"smiles": "NC(=[Se])N/N=C/c1ccc(Cl)cc1", "IC50": 8.63}, {"smiles": "CC(=O)N(/N=C/c1csc(-c2ccccc2)n1)c1nc(CCl)c[se]1", "IC50": 19.6}, {"smiles": "CC(=O)c1[se]c(N(/N=C/c2csc(-c3ccccc3)n2)C(C)=O)nc1C", "IC50": 31.3}, {"smiles": "CC(=O)N(C(=O)c1ccccc1)N(C(C)=O)c1nc(C)c[se]1", "IC50": "> 68.6"}, {"smiles": "CCOC(=O)c1[se]c(N/N=C/c2ccc(Cl)cc2)nc1C", "IC50": 47.7}, {"smiles": "CC(=O)N(C(=O)c1ccc(Cl)cc1)N(C(C)=O)c1nc(-c2ccccc2)c[se]1", "IC50": "> 54.3"}, {"smiles": "NC(=[Se])NNC(=O)c1ccc(Cl)cc1", "IC50": 7.59}, {"smiles": "CC(=O)N(C(=O)c1ccccc1)N(C(C)=O)c1nc(-c2ccccc2)c[se]1", "IC50": "> 58.6"}]}]}
